Data: US20180147296A1, “CARBON MATERIAL DELIVERY SYSTEMS AND METHODS” (The Research Foundation for The State University of New York, priority 2015, published 2018)

Assays:
HeLa cells [1] = assay: Confocal microscopy of C12 NBD ceramide; assay type: cell-based; settings: 2 hours
Procedure: C12 NBD ceramide was loaded onto O-GNRs using the same procedure as C24 and C16 ceramide. HeLa cells were seeded in glass-inset confocal dishes at a density of 7.5×10^4 cells/mL with 2 mL per plate and allowed to adhere overnight. Cells were treated with either 5 μM fluorescent C12 NBD ceramide or an equivalent amount of fluorescent C12 NBD ceramide loaded on O-GNRs for 2 hours and imaged using a Leica TCS SP8 Laser Scanning Confocal Microscope System (Buffalo Grove, Ill., USA). Cells were pretreated with inhibitors of O-GNR uptake Dynasore and Gefitinib, endosome disruptor Desipramine, or no treatment for 30 minutes prior to the addition of ceramide or ceramide-loaded O-GNRs.

[2] = PrestoBlue assay, separate cultures; assay type: cell-based; settings: human, separate culture, 80 μM Luc free or loaded, read-out: viability compared to untreated controls
Procedure: (§1) Luc alone (80 μM), 80 μM Luc loaded O-GNR-PEG-DSPE and O-GNR-PEG-DSPE (same weight as used for Luc loading) were incubated with CMV/U251, A1-5/CMV/U251, MCF-7 and CG-4 cells (5×10^3 cells per well in 96 well plates) for 24 hours. Following the incubation period the media was removed and the cells were washed twice with 1×PBS. 100 μL of fresh media was added to each well, as well as 10 μL of PrestoBlue® to each well, and incubated for 4 hours. Fluorescence was measured by Cytofluor fluorescence multiwell plate reader (Infinite M200, Tecan Group Ltd, NC, USA) with excitation at 530 nm, and emission at 580 nm.
(§2) The cell viability in terms of % of unexposed cells is expressed as the percentage of (Ftest−Fblank)/(Fcontrol−Fblank), where Ftest is the fluorescence of the cells exposed to nanoribbon-drug sample, Fcontrol is the fluorescence of the untreated sample and Fblank is the fluorescence of the wells without any cells. The PrestoBlue® reading for all lysed cells was also taken for comparison.

MCF-7 = assay: PrestoBlue assay, separate cultures; assay type: cell-based; settings: 80 μM Luc free or loaded; 24 hours
Procedure: as §1, §2

CG-4 = assay: PrestoBlue assay, separate cultures; assay type: cell-based, rat; settings: 80 μM Luc free or loaded; 24 hours
Procedure: as §1, §2

[3] = PrestoBlue assay, MCF-7-CMV/U251 co-culture; assay type: cell-based; settings: human, read-out: viability compared to untreated controls
Procedure: (§3) MCF-7, CG-4 and CMV/U251 were seeded separately on 12 mm round glass coverslips (Fisherbrand, Fisher Scientific, PA) in 100 mm plates at a density of 2.2×10^6 cells and allowed to grow overnight. For the two separate co-culture condition experiments, one coverslip from each cell line was placed in 6 well plates, for a total of two coverslips per well. These cells were then incubated with Luc alone (80 μM), 80 μM Luc loaded O-GNR-PEG-DSPE or O-GNR-PEG-DSPE for 24 h. After the incubation period, the media was removed and the cells were washed twice with 1×PBS. Each coverslip was then transferred to its own well in 6 well plates containing 3 mL of media and 300 μL of PrestoBlue® reagent. After incubating for 4 h, the fluorescence intensity was recorded using the procedure described above.

[4] = PrestoBlue assay, CG-4-CMV/U251 co-culture; assay type: cell-based; settings: read-out: viability compared to untreated controls
Procedure: as §3

A1-5/CMV/U251 = assay: Annexin V/PI staining, flow cytometry; assay type: cell-based; settings: 4 hours; for % AV+ / % PI + AV+ / % PI+ / % PI−AV−: A1-5/CMV/U251, free or on GONR
Procedure: (§4) Luc alone and Luc-loaded O-GNR-PEG-DSPEs at different concentrations (5-80 μM) were incubated with CMV/U251, A1-5/CMV/U251 and CG-4 (5×10^5 cells/3 mL in 6-well plates) for 4 hours. Unexposed cells were used as control. Unloaded O-GNR-PEG-DSPEs in amounts equivalent to the loaded nanoparticles were also exposed to all the cell types as delivery agent control. The viability of the cells was analyzed by flow cytometry after Annexin V/PI staining using FACS Calibur Cell Sorter (BD Biosciences, San Jose, Calif.).
(§5) Annexin V (AV) is a 35 KDa phospholipid binding protein with an affinity for phosphotidyl serine. Early apoptotic cells show exposed phosphotidyl serine on their cell surface while it is still intact. PI on the other hand can only enter dead cells or early necrotic cells with compromised membranes. Thus, in flow cytometry AV+/PI+ represents dead cells, AV+/PI− represents cells in early apoptosis, AV−/PI+ represents dead or necrotic cells with compromised membranes, and AV−/PI− represents healthy living cells. […] However, 37% of cells were still living after 4 hours of exposure to O-GNR-PEG-DSPE loaded with 80 μM Luc.

CMV/U251 = assay: Annexin V/PI staining, flow cytometry; assay type: cell-based; settings: 4 hours; for % AV+ / % PI + AV+ / % PI+ / % PI−AV−: CMV/U251, free or on GONR
Procedure: as §4, §5

HeLa cells [5] = assay: PrestoBlue viability assay, C6 ceramide; assay type: cell-based; settings: 8 μg/mL of C6; 24 hrs
Procedure: HeLa cells were seeded in flat-bottomed 96 well plates at a density of 5000 cells/well and were allowed to adhere overnight. Ceramide-loaded nanoparticles (O-GNRs or GNPs) were added to each well at various concentrations ranging from 10-100 μg/mL of nanoparticles. In order to ensure that any observed decrease in viability compared to untreated cells could not be attributed to the loading process, the loading process was repeated with only nanoparticles and incubated them with HeLa cells at the highest concentration used (100 μg/mL). After 24 hours, the media was aspirated and each well was rinsed twice with PBS. […] After 2 hours, the plates were removed and the fluorescence intensity of each well was measured using a Molecular Devices SpectraMax M2e (Sunnyvale, Calif., USA) with an excitation wavelength of 560 nm and an emission wavelength of 590 nm. […] The cell viability is expressed as a percent of the […] with the formula: […]
where Itest is the fluorescence intensity of cells exposed to ceramide-loaded nanoparticles, Icontrol is the fluorescence intensity of […], and Iblank is the fluorescence intensity from empty wells.
In a separate experiment, the efficacy of ceramide-loaded O-GNRs were compared to C6 ceramide without nanoparticles placed directly in the media. […] Viability was assessed with PrestoBlue using identical methods as described above.

HeLa cells [6] = assay: Live-cell confocal microscopy of NBD-ceramide; assay type: cell-based; settings: 40 μg/mL loaded O-GNRs or equal NBD-ceramide in ethanol; one hour
Procedure: In order to visualize the uptake of ceramide-loaded nanoparticles into cells, we loaded O-GNRs with C6 ceramide conjugated to 4-Chloro-7-nitrobenzofurazan (NBD-ceramide). HeLa cells were seeded in glass-inset confocal dishes at a density of 7.5×10^4 cells/mL with 2 mL per plate and allowed to adhere overnight. The following day, cells were placed in a LiveCell™ stage top incubation platform (Pathology Devices Inc., Westminster, Md., USA) and NBD-ceramide-loaded O-GNRs were added to these plates at a concentration of 40 μg/mL. As a control, cells were also incubated with an equivalent amount of NBD-ceramide in ethanol in a separate experiment. The cells were then imaged using a Leica TCS SP8 Laser Scanning Confocal Microscope System (Buffalo Grove, Ill., USA) over a period of one hour at two minute intervals.

SMILES: CCCCCCCCCCCCC/C=C/[C@@H](O)[C@H](CO)NC(=O)CCCCCCCCCCCNc1ccc([N+](=O)[O-])c2nonc12 [C12 NBD ceramide]
- fluorescence compared with cells not treated with inhibitor (HeLa cells [1]; pretreated with Dynasore 30 minutes): no difference
- fluorescence compared with cells not treated with inhibitor (HeLa cells [1]; pretreated with Gefitinib 30 minutes): no difference
- endosome localization compared with cells not treated with desipramine (HeLa cells [1]; pretreated with desipramine 30 minutes): significantly less endosome localization

SMILES: CCN(CC)CCNc1ccc(C)c2sc3ccccc3c(=O)c12 [Lucanthone]
- viability at 24 h, 80 μM ([2]; A1-5/CMV/U251 cells): ~30%
- viability at 24 h, 80 μM ([2]; CMV/U251 cells): ~40%
- toxicity (PrestoBlue) (MCF-7): toxic
- toxicity (PrestoBlue) (CG-4): toxic
- viability at 24 h, 80 μM ([3]; CMV/U251 cells on coverslips, co-cultured with MCF-7 cells, CMV/U251 in co-culture with MCF-7, 80 μM Luc free or loaded, or carrier alone): ~28%
- viability at 24 h, 80 μM ([3]; MCF-7 cells on coverslips, co-cultured with CMV/U251 cells, MCF-7 in co-culture with CMV/U251, 80 μM Luc free or loaded, or carrier alone): ~36%
- viability at 24 h, 80 μM ([4]; human, CMV/U251 cells on coverslips, co-cultured with CG-4 cells, CMV/U251 in co-culture with CG-4, 80 μM Luc free or loaded): ~15%
- viability at 24 h, 80 μM ([4]; rat, CG-4 cells on coverslips, co-cultured with CMV/U251 cells, CG-4 in co-culture with CMV/U251, 80 μM Luc free or loaded): ~30%
- cell death (A1-5/CMV/U251; 40 μM free Luc): 100%
- % AV+ (A1-5/CMV/U251; 5 μM lucanthone): 0%
- % PI + AV+ (A1-5/CMV/U251; 5 μM lucanthone): 0%
- % PI+ (A1-5/CMV/U251; 5 μM lucanthone): 76%
- % PI−AV− (A1-5/CMV/U251; 5 μM lucanthone): 24%
- % AV+ (A1-5/CMV/U251; 10 μM lucanthone): 0%
- % PI + AV+ (A1-5/CMV/U251; 10 μM lucanthone): 0%
- % PI+ (A1-5/CMV/U251; 10 μM lucanthone): 92%
- % PI−AV− (A1-5/CMV/U251; 10 μM lucanthone): 8%
- % AV+ (A1-5/CMV/U251; 20 μM lucanthone): 0%
- % PI + AV+ (A1-5/CMV/U251; 20 μM lucanthone): 0%
- % PI+ (A1-5/CMV/U251; 20 μM lucanthone): 98%
- % PI−AV− (A1-5/CMV/U251; 20 μM lucanthone): 2%
- % AV+ (A1-5/CMV/U251; 40 μM lucanthone): 0%
- % PI + AV+ (A1-5/CMV/U251; 40 μM lucanthone): 0%
- % PI+ (A1-5/CMV/U251; 40 μM lucanthone): 100%
- % PI−AV− (A1-5/CMV/U251; 40 μM lucanthone): 0%
- % AV+ (A1-5/CMV/U251; 80 μM lucanthone): 0%
- % PI + AV+ (A1-5/CMV/U251; 80 μM lucanthone): 0%
- % PI+ (A1-5/CMV/U251; 80 μM lucanthone): 100%
- % PI−AV− (A1-5/CMV/U251; 80 μM lucanthone): 0%
- cell death (CMV/U251; 80 μM free Luc): 100%
- % AV+ (CMV/U251; 5 μM lucanthone): 0%
- % PI + AV+ (CMV/U251; 5 μM lucanthone): 17%
- % PI+ (CMV/U251; 5 μM lucanthone): 78%
- % PI−AV− (CMV/U251; 5 μM lucanthone): 20%
- % AV+ (CMV/U251; 10 μM lucanthone): 0%
- % PI + AV+ (CMV/U251; 10 μM lucanthone): 0%
- % PI+ (CMV/U251; 10 μM lucanthone): 95%
- % PI−AV− (CMV/U251; 10 μM lucanthone): 5%
- % AV+ (CMV/U251; 20 μM lucanthone): 0%
- % PI + AV+ (CMV/U251; 20 μM lucanthone): 0%
- % PI+ (CMV/U251; 20 μM lucanthone): 97%
- % PI−AV− (CMV/U251; 20 μM lucanthone): 3%
- % AV+ (CMV/U251; 40 μM lucanthone): 0%
- % PI + AV+ (CMV/U251; 40 μM lucanthone): 0%
- % PI+ (CMV/U251; 40 μM lucanthone): 97%
- % PI−AV− (CMV/U251; 40 μM lucanthone): 3%
- % AV+ (CMV/U251; 80 μM lucanthone): 5%
- % PI + AV+ (CMV/U251; 80 μM lucanthone): 0%
- % PI+ (CMV/U251; 80 μM lucanthone): 95%
- % PI−AV− (CMV/U251; 80 μM lucanthone): 0%
- % PI−AV− (CMV/U251; 80 μM lucanthone, listed as Luc): no healthy living cells remaining
- nature of cell death (dead cells PI+/AV−) (CMV/U251; CMV/U251 and A1-5/CMV/U251, 5-80 μM): necrotic

SMILES: CCCCCCCCCCCCC/C=C/[C@@H](O)[C@H](CO)NC(=O)CCCCC [C6 ceramide, C6-Ceramide]
- HeLa cell viability greater than lysed cells (HeLa cells [5]): 55.8%

SMILES: CCCCCCCCCCCCC/C=C/C(O)C(CO)NC(=O)CCCCCNc1ccc([N+](=O)[O-])c2nonc12 [NBD ceramide, C6 N-[6-[(7-nitro-2-1,3-benzoxadiazol-4-yl)amino]hexanoyl]-D-erythro-sphingosine]
- uptake of NBD ceramide into cells (fluorescence) (HeLa cells [6]): rapid uptake
